Patent publication US20230133445A1, “COMPOSITIONS AND METHODS FOR IMPROVING THE APPEARANCE OF SKIN” (L'Oreal, priority 2021, published 2023)

Assays:
Neutrophil Elastase = target: T1, Neutrophil Elastase (Homo sapiens, UniProt P08246); assay: Neutrophil Elastase (NE) Inhibition in tubo assay (MAK213, Sigma-Aldrich); assay type: biochemical
T1 construct: purchased Sigma-Aldrich MAK213
T1 sequence (P08246 30-267): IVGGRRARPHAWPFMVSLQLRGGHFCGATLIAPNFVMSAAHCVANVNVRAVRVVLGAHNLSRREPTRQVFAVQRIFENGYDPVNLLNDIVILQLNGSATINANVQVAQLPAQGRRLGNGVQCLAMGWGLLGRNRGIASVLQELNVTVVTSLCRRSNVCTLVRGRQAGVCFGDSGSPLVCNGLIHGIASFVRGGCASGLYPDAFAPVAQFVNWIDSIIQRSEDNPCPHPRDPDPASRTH
Description: The ability of acetyl trifluoromethylphenyl valylglycine (“ATV”), glycolic acid, and/or lactic acid to inhibit the elastin-hydrolyzing effect of elastase was evaluated in a Neutrophil Elastase (NE) Inhibition in tubo assay (MAK213, Sigma-Aldrich, MO). Neutrophil Elastase activity was measured by hydrolyzing the substrate to yield a fluorescent product (λex=400/λem=505 nm) proportional to the enzymatic activity present.
A 4× sample inhibitor solution of the each tested chemical peeling agent and acetyl trifluoromethylphenyl valylglycine, and every combination provided in FIGS. 1 and 2 was prepared. The inhibitor/positive control (Elastase Inhibitor, SPCK, AG Scientific), enzyme/negative control (contains elastase), neutrophil elastase, and substrate solutions were prepared. The test compounds, controls, and neutrophil elastase were added to a 96-well plate, protected from light, and incubated at 37° C. for 5 minutes. The elastin substrate was then added to each well and the fluorescence (FLU, λex=400 nm, λem=505 nm) was measured every minute for thirty minutes at 37° C. The slope of the plot (time vs FLU) was taken. Relative inhibition was calculated as follows: […]

[1] = assay type: in vitro ADME, human
Description: Human skin samples were obtained from abdominal surgery. Excess subcutaneous fat was removed, if necessary. Skin samples were excised and cut into pieces of around 2 cm×2 cm. Thickness was measured and transepidermal water loss (TEWL) was measured. The human skin was included in the study if the TEWL was between 0.5 and 13 g/m^2/h for abdominal skin. The 2 cm^2 skin samples were kept in a static cell in a diffusion chamber in a Franz cell horizontal cell clamp system (Crown Glass Company, Inc.) and maintained at a constant temperature of 32° C.±1° C. The static cells consist of a donor chamber and a receptor chamber with a 7 mL receptor fluid compartment separated by the skin.
The cells were placed on a magnetic stirrer which was integrated with a fixed temperature water bath maintained in order to have 32° C.±1° C. at the skin surface. The receptor compartment of each cell was filled with the receptor fluid (PBS) and was continuously stirred. The skin samples were placed on the receptor compartment. The donor compartment was then placed onto the skin samples. […]
A composition containing 2 wt % acetyl trifluoromethylphenyl valylglycine was applied to the skin sample at a rate of 10 mg/cell using a positive displacement pipette and the exact amount applied was determined by weight then recorded (Sartorius Entris II Essential Analytical balance, Thermo-Fisher). […]
The skin was then stripped with consistent weight and time of application. […] The strips samples were stored with solvent (methanol) at −20° C. for a maximum of 5 days before being analyzed. […] The RS vials were stored with solvent (methanol) at −20° C. for a maximum of 7 days before being analyzed. Dermis and epidermis samples were stored with solvent at −20° C. for a maximum of 7 days before being analyzed. The receptor fluid was taken 16 hours after the application and the samples were analyzed.
Receptor fluid samples were stored at −20° C. for a maximum of 6 days before being analyzed. […] Samples were stored at −20° C. for a maximum of 5 days before being analyzed.
The final extract was analyzed by LC-MS/MS. […]

In the case of `CC(O)C(=O)O` (stereo not shown) [Lactic Acid, reference compound], the “Average Inhibition (%)” value (Neutrophil Elastase; Table 2, 0.125 wt % Lactic Acid) is reported as 8.507% and the “Average Inhibition (%)” value (Neutrophil Elastase; Table 2, 0.625 wt % Lactic Acid) is reported as 24.09%.

For `O=C(O)CO` [Glycolic Acid, reference compound], the “Average Inhibition (%)” value (Neutrophil Elastase; Table 1, 0.125 wt % Glycolic Acid) was 15.8949% and the “Average Inhibition (%)” value (Neutrophil Elastase; Table 1, 0.625 wt % Glycolic Acid) was 23.89%.

In the case of `CC(=O)N(c1cccc(C(F)(F)F)c1)C(C(=O)NCC(=O)O)C(C)C` (stereo not shown) [ATV, acetyl trifluoromethylphenyl valylglycine], the “Average Inhibition (%)” value (Neutrophil Elastase; Table 1, 0.0125 wt % ATV) is reported as 12.49%, the “Average Inhibition (%)” value (Neutrophil Elastase; Table 1, 0.025 wt % ATV) is reported as 14.97% and the “Average Inhibition (%)” value (Neutrophil Elastase; Table 1, 0.0625 wt % ATV) is reported as 18.36%. For the same compound, the “Average Inhibition (%)” value (Neutrophil Elastase; Table 2, 0.0125 wt % ATV) was 4.93%, the “Average Inhibition (%)” value (Neutrophil Elastase; Table 2, 0.025 wt % ATV) was 9.311% and the “Average Inhibition (%)” value (Neutrophil Elastase; Table 2, 0.0625 wt % ATV) was 11.96%. The “amount penetrated through the stratum corneum” value [1] was “about 0.08 wt %”, the “amount penetrating past the stratum corneum barrier into epidermis, dermis and receptor fluid” value [1] was “about 0.8%” and the “dermal dose of the 2 wt % preparation” value [1] was “at least 0.08 wt %”.
